Measured values reported in patent US9028845B2, “Chimeric immunomodulatory compounds and methods of using the same-IV” (Dynavax Technologies Corporation, priority 2001, dated 2015).

Assays:
human PBMCs = experiment: Human PBMC cytokine response assay (IFN-γ and IFN-α in cell-free medium by ELISA), with or without cPLGA;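 for IFN-α (pg/ml) mean: 20 µg/mL compound for 24 hours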;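 for IFN-γ (pg/ml) mean: 20 µg/mL compound for 24 hours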; format: cell-based; conditions: for IFN-γ (pg/ml) 28065: donor 28065 (high background), 1000 = outside assay limits; for IFN-γ (pg/ml) 28065 / IFN-α (pg/ml) 28065 / IFN-α (pg/ml) 28066 / IFN-γ (pg/ml) 28066 / IFN-α (pg/ml) 28067 / IFN-γ (pg/ml) 28067 / IFN-α (pg/ml) 28068 / IFN-γ (pg/ml) 28068 / IFN-α (pg/ml) mean / IFN-γ (pg/ml) mean: 20 ug/ml, + PLGA = premixed with 100 μg/ml cPLGA; for IFN-γ (pg/ml) 28065 / IFN-α (pg/ml) 28065 / IFN-α (pg/ml) 28066 / IFN-γ (pg/ml) 28066 / IFN-α (pg/ml) 28067 / IFN-γ (pg/ml) 28067 / IFN-α (pg/ml) 28068 / IFN-γ (pg/ml) 28068 / IFN-α (pg/ml) mean / IFN-γ (pg/ml) mean / IFN-α induction (FIG. 10), in words: 24 h; for IFN-α (pg/ml) 28065: donor 28065; for IFN-α (pg/ml) 28066 / IFN-γ (pg/ml) 28066: donor 28066; for IFN-α (pg/ml) 28067 / IFN-γ (pg/ml) 28067: donor 28067; for IFN-α (pg/ml) 28068 / IFN-γ (pg/ml) 28068: donor 28068; for IFN-α (pg/ml) mean / IFN-γ (pg/ml) mean: mean of donors 28065-28068; for IFN-α induction (FIG. 10), in words: PBMCs from 8 donors, 20 μg/ml
CD19+ B cells = experiment: Human B cell proliferation assay (3H-thymidine incorporation); conditions: for cpm1 / cpm2 / cpm3 / mean cpm / mean of both: B cells, Experiment B; for mean of both: mean of donors 121 and 194; for B cell proliferation (FIG. 11), in words: purified human B cells, 5 μg/ml, 96 h
[1] = Table 24, mean of donors 28234-28237

Substance | IFN-γ (pg/ml) 28065 (human PBMCs) [pg/mL] | IFN-α (pg/ml) 28065 (human PBMCs) [pg/mL] | IFN-α (pg/ml) 28066 (human PBMCs) [pg/mL] | IFN-γ (pg/ml) 28066 (human PBMCs) [pg/mL] | IFN-α (pg/ml) 28067 (human PBMCs) [pg/mL] | IFN-γ (pg/ml) 28067 (human PBMCs) [pg/mL] | IFN-α (pg/ml) 28068 (human PBMCs) [pg/mL] | IFN-γ (pg/ml) 28068 (human PBMCs) [pg/mL] | IFN-α (pg/ml) mean (human PBMCs) [pg/mL] | IFN-γ (pg/ml) mean (human PBMCs) [pg/mL] | cpm1 (CD19+ B cells; donor 121, 2 μg/ml) [cpm] | cpm2 (CD19+ B cells; donor 121, 2 μg/ml) [cpm] | cpm3 (CD19+ B cells; donor 121, 2 μg/ml) [cpm] | mean cpm (CD19+ B cells; donor 121 mean, 2 μg/ml) [cpm] | cpm1 (CD19+ B cells; donor 194, 2 μg/ml) [cpm] | cpm2 (CD19+ B cells; donor 194, 2 μg/ml) [cpm] | cpm3 (CD19+ B cells; donor 194, 2 μg/ml) [cpm] | mean cpm (CD19+ B cells; donor 194 mean, 2 μg/ml) [cpm] | mean of both (CD19+ B cells; 2 μg/ml) [cpm] | B cell proliferation (FIG. 11), in words (CD19+ B cells) | other results
5′-TCGTCG-3′-C4-5′-ACGTTCG-3′-C4-5′-AGATGAT-3′ [Compound C-17] | 1000 | 21 | 0 | 6 | 22 | 32 | 95 | 459 | 34 | 374 | 27975 | 30426 | 9895 | 22765 | 17467 | 14890 | 10518 | 14292 | 18529 |  | 
(5′-TCGTCGA-3′-C3)2-glycerol-C3-5′-TCGTCGA-3′ [Compound C-104] |  |  |  |  |  |  |  |  |  |  |  |  |  |  |  |  |  |  |  | stimulates B cells to proliferate | IFN-α induction (FIG. 10), in words (human PBMCs): induces no measurable IFN-α; IFN-α (human PBMCs; Table 24, donor 28234): 16 pg/mL; IFN-γ (human PBMCs; Table 24, donor 28234): 14 pg/mL; IFN-α (human PBMCs; Table 24, donor 28235): 29 pg/mL; IFN-γ (human PBMCs; Table 24, donor 28235): 4 pg/mL; IFN-α (human PBMCs; Table 24, donor 28236): 16 pg/mL; IFN-γ (human PBMCs; Table 24, donor 28236): 87 pg/mL; IFN-α (human PBMCs; Table 24, donor 28237): 16 pg/mL; IFN-γ (human PBMCs; Table 24, donor 28237): 125 pg/mL; IFN-α mean (human PBMCs; [1]): 19 pg/mL; IFN-γ mean (human PBMCs; [1]): 58 pg/mL; IFN-α induction, in words (human PBMCs; used alone): HEG (C-94)>TEG (C-103)>C3 (C-104)=no linker (C-28)
5′-TCGATTT-3′-HEG-5′-TCGATTT-3′-HEG-5′-TCGATTT-3′ [Compound C-74] |  |  |  |  |  |  |  |  |  |  |  |  |  |  |  |  |  |  |  | induced moderate levels of B cell proliferation | 
5′-TCGTCG-3′-abasic-5′-ACGTTCG-3′-abasic-5′-AGATGAT-3′ [Compound C-20] | 354 | 21 | 5 | 13 | 13 | 16 | 64 | 505 | 26 | 222 | 31276 | 30851 | 28532 | 30220 | 18082 | 18705 | 17481 | 18089 | 24155 |  | 
(5′-TCGATCG-3′-HEG)2-glycerol-HEG-5′-TCGATCG-3′ [Compound C-145] |  |  |  |  |  |  |  |  |  |  |  |  |  |  |  |  |  |  |  | induce very little B cell proliferation | IFN-α induction (FIG. 10), in words (human PBMCs): induce high levels of IFN-α
5′-TCGTCG-3′-C12-5′-ACGTTCG-3′-C12-5′-AGATGAT-3′ [Compound C-19] | 84 | 0 | 1 | 8 | 0 | 1 | 13 | 2 | 4 | 24 | 858 | 1099 | 926 | 961 | 371 | 403 | 312 | 362 | 662 |  | immunomodulatory activity (IFN-γ / IFN-α secretion), in words (human PBMCs; used alone (no cPLGA)): did not show activity; B cell proliferation, in words (CD19+ B cells; 2 μg/ml, 48 h plus 8 h 3H-thymidine pulse): inactive
